Experimental data: US6551605B2, “Diesters or polyesters of naphthalene dicarboxylic acid as solubilizer/stabilizer for retinoids” (Haarmann & Reimer, priority 2001, dated 2003)
≈ marks a conversion by molar mass, not a printed value.

Tests used:
skin [1] = settings: topical, 0.1% versus 0.025%; cited from earlier work
[2] = Solubility of retinoids in diethylhexyl 2,6-naphthalate (HallBrite TQ); type: physicochemical; settings: organic solvent or mixture, read-out: solubility in diethylhexyl diester of 2,6-naphthalene-dicarboxylic acid
Experimental: Retinoids are lipophilic. […] For example, isotretinoin is soluble in the diethylhexyl diester of 2,6-naphthalene-dicarboxylic acid (diethylhexyl 2,6-naphthalate, HallBrite TQ, C. P. Hall) at approximately 6.7 mg/ml, and tretinoin is soluble in the same diester at approximately 5.6 mg/ml.

skin [3] = settings: topical, 0.1% versus 0.025%; cited from earlier work; remark: listed apart in the source
[4] = cited from earlier work
[5] = cited from earlier work; remark: listed apart in the source

SMILES | degree of irritation (skin [1]) | solubility [2] [µg/mL] | therapeutic effectiveness (skin [3]) | solubility in chloroform ([4]; chloroform) | solubility in dimethyl sulfoxide ([4]; dimethyl sulfoxide) [µg/mL] | solubility in ether ([4]; ether) | solubility in methylene chloride ([4]; methylene chloride) | solubility in water ([4]; water) | stability of aqueous solutions ([5]; aqueous solutions) | stability of solutions in pure organic solvents ([5]; pure organic solvents, stored in the dark)
CC1=C(/C=C/C(C)=C/C=C/C(C)=C\C(=O)O)C(C)(C)CCC1 [isotretinoin, 13-cis-retinoic acid] | more irritating | ~6700 (≈ 22.3 mM) | more effective |  |  |  |  |  |  | 
CC1=C(/C=C/C(C)=C/C=C/C(C)=C/C(=O)O)C(C)(C)CCC1 [tretinoin, all-trans-retinoic acid] |  | ~5600 (≈ 18.6 mM) |  | slightly soluble | 40000 (≈ 133 mM) | sparingly soluble | soluble | practically insoluble | deteriorate quickly | stable
